Results as given in patent US20070270382A1, “Composition for Protecting Skin” (priority 2003, published 2007).

Columns and labels:
hairless mice = assay: Photoaging inhibitory effect of sphingomyelin (animal test, UV irradiation); type: in vivo
skin barrier = assay: Skin barrier function improving effect: TEWL repair after tape stripping, before and after taking sphingomyelin; type: in vivo, human; conditions: for difference in TEWL, taking vs not-taking sphingomyelin (in words): 2 and 4 days
Procedure: In this Example, a person's sebum film was artificially injured to increase an amount of water loss. After that, it was confirmed that there was a difference of repair degrees of water loss before and after taking sphingomyelin. It was also confirmed that how much skin wrinkles due to the water loss were improved by taking sphingomyelin. A capsule containing sphingomyelin 50 mg, phosphatidylserine 10 mg and gamma-linoleic acid 12.5 mg was used as a test material. Two capsules per one time were taken two times (morning and evening) a day. That is, four capsules were taken per a day and a medication period was three weeks. Tests were carried out for 18 males and 3 females and the testing method was as follows. An amount of water loss of skin was measured for an inner region of an arm using a TEWL meter TM210. A skin wound was induced by stripping off corneum with a tape many times and increasing a TEWL value (normally, around 6˜10) to 30 or more. In other words, after inducing an injury of a skin barrier using a tape, repair aspects of TEWL values in the injured region before and after taking sphingomyelin were compared and thus a skin barrier restoring effect of sphingomyeling was confirmed. Skin barrier function in a normal state was checked by measuring TEWL in a forearm from 21 persons. A TEWL value was increased to 30 or more after tape stripping and then TEWL was measured every other day. TEWL in a normal state was measured together with a measurement of TEWL in an injured region because TEWL in a normal state can be different according to conditions of temperature, humidity and weather, etc. Meanwhile, a same test was carried out to measure a medication effect of sphingomyelin and TEWL of skin was measured while taking sphingomyelin two times a day.

skin wrinkles = assay: Skin wrinkle improving effect: wrinkles adjacent to eyes observed using a Charm View; type: in vivo, human; conditions: four persons having a weak skin barrier function; before and after taking sphingomyelin
Procedure: A capsule containing sphingomyelin 50 mg, phosphatidylserine 10 mg and gamma-linoleic acid 12.5 mg was used as a test material. Two capsules per one time were taken two times (morning and evening) a day. That is, four capsules were taken per a day and a medication period was three weeks. […] Four persons having a weak skin barrier function of the 21 examinees were selected and their skin states were measured before and after taking sphingomyelin.

Sphingomyelin
state of skin (photographs, FIGS. 2 to 4) (hairless mice; UV irradiation+SM application vs UV only or UV+Vehicle, after completion of the test): the skin was extremely injured, compared to the case that the substrate containing sphingomyelin was applied after UV irradiation | skin barrier function (FIG. 1) (hairless mice; UV irradiation+SM application, 0.5% in 1,3-butyleneglycol/distilled water/ethanol 5:3:2, UV three times per week for three months, vs UV only or UV+Vehicle): the skin barrier was not easily damaged and remained in a level of the early stage of the test | skin barrier function (FIG. 1) (hairless mice; UV irradiation+SM oral administration): skin barrier protecting effect of sphingomyelin against ultraviolet was exhibited | skin histological test (FIG. 5): epidermis and dermis (hairless mice; sphingomyelin applied after UV irradiation vs only UV irradiation): the epidermis and dermis thereof were similar to those of at the early stage of the test | difference in TEWL, taking vs not-taking sphingomyelin (in words) (skin barrier; 21 persons (Table 3)): no significant difference | difference in TEWL, taking vs not-taking sphingomyelin (in words) (skin barrier; weak skin barrier function (Table 5)): no significant difference | difference of TEWL decreases, taking vs not-taking sphingomyelin (in words) (skin barrier; 6 days, weak skin barrier function (Table 5)): significant difference of TEWL decreases | % TEWL, taking sphingomyelin (skin barrier; day 0, 21 persons, capsule with sphingomyelin 50 mg, phosphatidylserine 10 mg, gamma-linoleic acid 12.5 mg, four capsules per day): 100 % TEWL | % TEWL, taking sphingomyelin (skin barrier; day 0, persons with weak skin barrier function (high TEWL in normal region)): 100 % TEWL | % TEWL, taking sphingomyelin (skin barrier; day 0, six examinees with relatively high decrease rate of TEWL): 100 % TEWL | % TEWL, taking sphingomyelin (skin barrier; day 2, 21 persons, oral capsules): 43.2 ± 11.5 % TEWL | % TEWL, taking sphingomyelin (skin barrier; day 2, persons with weak skin barrier function): 36.9 ± 18.9 % TEWL | % TEWL, taking sphingomyelin (skin barrier; day 2, six examinees with relatively high decrease rate of TEWL): 45.7 ± 10.7 % TEWL | % TEWL, taking sphingomyelin (skin barrier; day 4, 21 persons, oral capsules): 23.1 ± 8.1 % TEWL | % TEWL, taking sphingomyelin (skin barrier; day 4, persons with weak skin barrier function): 19.8 ± 8 % TEWL | % TEWL, taking sphingomyelin (skin barrier; day 4, six examinees with relatively high decrease rate of TEWL): 23.7 ± 7.5 % TEWL | % TEWL, taking sphingomyelin (skin barrier; day 6, 21 persons, oral capsules): 14.8 ± 7 % TEWL | % TEWL, taking sphingomyelin (skin barrier; day 6, persons with weak skin barrier function): 9.7 ± 5.8 % TEWL | % TEWL, taking sphingomyelin (skin barrier; day 6, six examinees with relatively high decrease rate of TEWL): 7.4 ± 4.3 % TEWL | difference in TEWL decrease, taking vs not-taking sphingomyelin (in words) (skin barrier; six days, 21 persons (FIG. 11), paired t-test): significant difference in a TEWL decrease | wrinkle improving effect (FIG. 14) (skin wrinkles): had a wrinkle improving effect
